From patent publication US4652568A, “Theophylline-7-acetic acid ester of d,l-trans-sobrerol having mucosecretolytic-fluidizing and antibronchospastic activity, a process for its preparation and pharmaceutical compositions thereof” (priority 1984, dated 1987)

Experiments:
[1] = system: bronchospasm induced by hystamine; experiment: Antibronchospastic activity in the guinea-pig, method of Konzett and Rossler; format: in vivo; conditions: drug i.v., inhibition of bronchospasm by hystamine (6 to 20 mg/kg i.v.), relative to theophylline, taken equal to 100
Description: Spotted female guinea-pigs, with a body weight of 300-500 g., are used.
As a spasmogenous agent, hystamine (6 to 20 mg/kg i.v.) is used. The activity is defined as percent inhibition of the bronchospasm induced by hystamine in the presence of the drug (i.v. administered), compared to the one of hystamine alone in the presence of the solvent.
The drugs are dissolved into 2% dimethylformamide in physiological solution (solvent).

[2] = system: mucoproduction (bronchial secretion); experiment: Bronchosecretagogue activity: mucoproduction in the rabbit according to Scuri; format: in vivo; conditions: for Bronchosecretagogue activity: rabbit, oral, percent increase of mucoproduction II vs I period, relative to d,l-trans-sobrerol, taken equal to 100
Description: Method of mucoproduction in the rabbit according to Scuri R. et al, Boll. Chim. Farm.
Male brown rabbits weighing 2.8-3.5 kg are used. To said animals, by a surgical operation under anaesthesia, a T shaped tracheal cannula is applied, as described in the above mentioned bibliographic reference.
To the cannula, a container (a polypropylene 2 ml test tube) is applied for periodical collection of the bronchial secretion.
The study of mucoproduction, started at the fourth day after the operation, is divided into two 4 hour periods for collecting and measuring the mucus, and precisely from 8:30 to 12:30 (I) and from 12:30 to 16:30 (II).
The activity of each drug is tested by administering the same by oesophageal way (os) at the begining of the II period and by evaluating the percent increase of mucoproduction (weight of the mucus as collected) over the II period as compared to the I period.

[3] = system: bronchial mucus of bronchitic rabbits; experiment: Fluidizing "in vivo" activity: viscosity of the bronchial mucus of bronchitic rabbits; parameters: species or system rabbit; conditions: for Fluidizing "in vivo" activity of bronchial mucus: bronchitic rabbits, oral, relative to d,l-trans-sobrerol taken equal to 100
Description: Method for studying viscosity of the bronchial mucus of a bronchitic rabbit.
Viscosity of the mucus as withdrawn is studied by using a Contraves RM16 microviscosimeter and it is recorded by a Rheomat 15T-FC apparatus.

[4] = Acute toxicity: LD50 in the mouse after a single oral administration; conditions: in vivo, mortality at 14th day, Litchfield and Wilcoxon
Description: Method for studying LD50 in the mouse after a single oral administration.
Groups of 10 Swiss albine, female, adult mice (20-22 g), fasting from the evening preceding the test, are treated orally with various doses (4 to 5) of the test drugs, dissolved/suspended in 1% hydroxycellulose (volume administered 20 ml/kg). Thereafter, the animals are fed again (Morini MIL fodder for mice).
The 50% lethal dose (LD50) is calculated by the method of Litchfield J. T. and Wilcoxon F. (J. Pharmacol. 96, 99-113, 1949) by utilizing the mortality data as obtained at the 14th day after the drug treatment.

[5] = Pharmacocinetics: plasma levels (HPLC) and presence in tracheo-bronchial excretion and pulmonary tissue; format: in vivo, Wistar rats; conditions: rat, 300 mg/kg oral
Description: Two groups of Wistar rats (165.div.250 g) are utilized. Before treatment, the animals were fasting for about 15 hours and were allowed to drink a 10% glucose solution ad libitum.
To the first group, the compound of formula (I) of this invention, orally (transoesophageal intubation) at the dose of 300 mg/kg is administered (a single administration) and at 0.5 h; 1 h; 1.5 h; 2 h; 3 h; 4 h; and 6 h from administration 5 rats/time are sacrificed. The blood, as collected into test tubes containing sodium heparin is centrifuged, and the plasma so obtained is utilized for quantitative analysis of the product, by means of high pressure liquid chromatography (HPLC) with an U.V. detector. To the second group, the compound of formula (I) of this invention at the dose of 300 mg/kg orally is administered (a single administration), and at 1 h and 2 h from administration, 5 rats/time are sacrificed (by bleeding). To each rat, trachea, bronchia and lungs are withdrawn. From trachea and bronchia, by means of two washings with a 0.5 ml syringe containing physiological solution, introduced into the trachea, the tracheo-bronchialexcretion is recovered, which is utilized to evaluate quantitatively the presence of the compound of formula (I) of the present invention. The pulmonary tissue, to which a KCl solution has been added, is homogenized by an ultra Turrax apparatus and utilized for the quantitative testing of the presence of the compound of formula (I) of this invention. […] In relation to the activity shown on by the compound of the invention as a mucosecretolytic-fluidizing-anti-bronchospastic agent, the present invention further provides pharmaceutical compositions containing the compound of formula (I) of this invention in dosage units.

Structure (SMILES)	Antibronchospastic activity [1]	Bronchosecretagogue activity [2]	Fluidizing "in vivo" activity of bronchial mucus [3]	LD50 at 336 h [4] [mg/kg]	mucosecretolytic activity compared with d,l-trans-sobrerol, in words ([2]; summary statement)	fluidizing activity compared with d,l-trans-sobrerol, in words ([3]; summary statement)	presence at the level of tracheo-bronchial mucus ([5]; 1 h and 2 h)	presence in the pulmonary parenchyma ([5]; 1 h and 2 h)	absorption (course of the plasmatic levels) ([5]; single administration, plasma 0.5 to 6 h)
Cn1c(=O)c2[nH]cnc2n(C)c1=O [theophylline]	100	0	0						
CC1=CC[C@H](C(C)(C)O)C[C@H]1O (relative stereo) [d,l-trans-sobrerol]	0	100	100						
CC1=CC[C@H](C(C)(C)O)C[C@H]1OC(=O)Cn1cnc2c1c(=O)n(C)c(=O)n2C (relative stereo) [CO/1488, 5-hydroxy-α,α-4-trimethyl-3-cyclohexene-1-methanol-5-[2[7[1,2,3,6-tetrahydro-1,3-dimethyl-2,6-dioxopurinyl]]]acetate]	143	128	110	1900	slight potency increase	slight potency increase	found also at the level of tracheo-bronchial mucus	in the pulmonary parenchyma	quick and good absorption
